{"source": "patent US20210319872A1", "about": "“DRUG AND DEVICE COMBINATION PRODUCTS WITH IMPROVED SAFETY AND EFFICACY PROFILES” (priority 2016, published 2021)", "origin": "cited, not measured here", "key": {"[1]": {"details": "subependymal giant cell astrocytoma"}}, "note": "Like-named read-outs stand apart in the source and are kept apart here."}
{"compound": "CO[C@H]1C[C@@H]2CC[C@@H](C)[C@@](O)(O2)C(=O)C(=O)N2CCCC[C@H]2C(=O)O[C@H]([C@H](C)C[C@@H]2CC[C@@H](OCCO)[C@H](OC)C2)CC(=O)[C@H](C)/C=C(\\C)[C@@H](O)[C@@H](OC)C(=O)[C@H](C)C[C@H](C)/C=C/C=C/C=C/1C", "note": "[Afinitor]", "values": [{"measurement": "Pulmonary embolism", "setting": "PNET", "result": 2.5, "unit": "%"}, {"measurement": "Angioedema", "setting": "Transplant", "result": "Other: Angioedema (Transplant, up to 6.8%), Sepsis (tumors less"}, {"measurement": "Hemolytic uremic syndrome", "setting": "Transplant", "result": "Renal: Hemolytic uremic syndrome (Transplant, less than 1%),"}, {"measurement": "Pericardial effusion", "setting": "Transplant", "result": "Cardiovascular: Pericardial effusion (Transplant, less than 1%)"}, {"measurement": "Thrombocytopenia, All grades", "setting": "Transplant", "result": "≤ 10", "unit": "%"}, {"measurement": "Thrombotic microangiopathy", "setting": "Transplant", "result": "< 1%), Thrombotic thrombocytopenic purpura (Transplant, less than"}, {"measurement": "Thrombotic thrombocytopenic purpura", "setting": "Transplant", "result": "< 1", "unit": "%"}, {"measurement": "Hypoalbuminemia", "setting": "breast cancer", "result": "Hypoalbuminemia (breast cancer, 33%), Hypophosphatemia"}, {"measurement": "Interstitial lung disease", "setting": "in vivo", "result": "Respiratory: Interstitial lung disease (Less than 1%), Non-"}, {"measurement": "Non-infectious pneumonia", "setting": "in vivo", "result": "≤ 19", "unit": "%"}, {"measurement": "Anemia, All grades", "setting": "kidney transplant", "result": "transplant, 26%), Decreased lymphocyte count, all grades (tumors,"}, {"measurement": "Constipation", "setting": "kidney transplant", "result": 38, "unit": "%"}, {"measurement": "Cough", "setting": "kidney transplant", "result": 7, "unit": "%"}, {"measurement": "Diarrhea", "setting": "kidney transplant", "result": "kidney transplant, 19%; liver transplant, 19%), Nausea (tumors,"}, {"measurement": "Dyslipidemia", "setting": "kidney transplant", "result": "Endocrine metabolic: Dyslipidemia (kidney transplant, 15%),"}, {"measurement": "Fatigue", "setting": "kidney transplant", "result": 9, "unit": "%"}, {"measurement": "Fever", "setting": "kidney transplant", "result": 19, "unit": "%"}, {"measurement": "Hypercholesterolemia", "setting": "kidney transplant", "result": 17, "unit": "%"}, {"measurement": "Hyperlipidemia", "setting": "kidney transplant", "result": 21, "unit": "%"}, {"measurement": "Hypertension", "setting": "kidney transplant", "result": 30, "unit": "%"}, {"measurement": "Hypophosphatemia", "setting": "kidney transplant", "result": 13, "unit": "%"}, {"measurement": "Impaired wound healing", "setting": "kidney transplant", "result": "Immunologic: Impaired wound healing (kidney transplant, 35%;"}, {"measurement": "Increased glucose level, All grades", "setting": "kidney transplant", "result": 12, "unit": "%"}, {"measurement": "Infectious disease", "setting": "kidney transplant", "result": 62, "unit": "%"}, {"measurement": "Leukopenia", "setting": "kidney transplant", "result": 3, "unit": "%"}, {"measurement": "Nausea", "setting": "kidney transplant", "result": 29, "unit": "%"}, {"measurement": "Peripheral edema", "setting": "kidney transplant", "result": 45, "unit": "%"}, {"measurement": "Serum creatinine raised", "setting": "kidney transplant", "result": 18, "unit": "%"}, {"measurement": "Stomatitis", "setting": "kidney transplant", "result": 8, "unit": "%"}, {"measurement": "Upper respiratory infection", "setting": "kidney transplant", "result": "transplant, 16%)"}, {"measurement": "Urinary tract infectious disease", "setting": "kidney transplant", "result": "16%; kidney transplant, 22%)"}, {"measurement": "Vomiting", "setting": "kidney transplant", "result": 15, "unit": "%"}, {"measurement": "Serious side effect, Respiratory", "setting": "listed without frequency", "result": "Pneumocystis pneumonia"}, {"measurement": "Diarrhea", "setting": "liver transplant", "result": "kidney transplant, 19%; liver transplant, 19%), Nausea (tumors,"}, {"measurement": "Fever", "setting": "liver transplant", "result": "transplant, 13%)"}, {"measurement": "Hyperlipidemia", "setting": "liver transplant", "result": 24, "unit": "%"}, {"measurement": "Hypertension", "setting": "liver transplant", "result": 17, "unit": "%"}, {"measurement": "Impaired wound healing", "setting": "liver transplant", "result": "liver transplant, 11%)"}, {"measurement": "Infectious disease", "setting": "liver transplant", "result": 50, "unit": "%"}, {"measurement": "Leukopenia", "setting": "liver transplant", "result": 12, "unit": "%"}, {"measurement": "Nausea", "setting": "liver transplant", "result": 14, "unit": "%"}, {"measurement": "Peripheral edema", "setting": "liver transplant", "result": 18, "unit": "%"}, {"measurement": "Amenorrhea", "setting": "renal angiomyolipoma", "result": "Reproductive: Amenorrhea (renal angiomyolipoma, 15%),"}, {"measurement": "Menorrhagia", "setting": "renal angiomyolipoma", "result": "angiomyolipoma, 10%)"}, {"measurement": "Otitis media", "setting": "renal angiomyolipoma", "result": "Otic: Otitis media (renal angiomyolipoma, 6%)"}, {"measurement": "Seizure", "setting": "renal angiomyolipoma", "result": "Neurologic: Seizure (renal angiomyolipoma, 5%)"}, {"measurement": "Hemorrhage", "setting": "renal cell carcinoma", "result": 3, "unit": "%"}, {"measurement": "Pneumonia", "setting": "renal cell carcinoma", "result": 6, "unit": "%"}, {"measurement": "Renal failure", "setting": "renal cell carcinoma", "result": "Renal failure (renal cell carcinoma, 3%), Thrombosis of renal"}, {"measurement": "Mental disorder", "setting": "[1]", "result": "astrocytoma, 21%)"}, {"measurement": "Partial thromboplastin time increased", "setting": "[1]", "result": "giant cell astrocytoma, 72%), Thrombocytopenia, All grades"}, {"measurement": "Pleural effusion", "setting": "tumors", "result": 7, "unit": "%"}, {"measurement": "Sepsis", "setting": "tumors", "result": "< 1", "unit": "%"}]}
{"compound": "CC(C)NCC(O)COc1ccc(CC(N)=O)cc1", "note": "(stereo not drawn) [Atenolol (Tenormin)]", "values": [{"measurement": "Bradyarrhythmia", "setting": "in vivo", "result": "Cardiovascular: Bradyarrhythmia (3% to 18%), Cold extremities"}, {"measurement": "Cold extremities", "setting": "in vivo", "result": "(12%), Hypotension (4% to 25%)"}, {"measurement": "Depression", "setting": "in vivo", "result": "Psychiatric: Depression (up to 12%)"}, {"measurement": "Dizziness", "setting": "in vivo", "result": "Neurologic: Dizziness (13%)"}, {"measurement": "Fatigue", "setting": "in vivo", "result": "Other: Fatigue (up to 26%)"}, {"measurement": "Hypotension", "setting": "in vivo", "result": "(12%), Hypotension (4% to 25%)"}, {"measurement": "Pulmonary embolism", "setting": "in vivo", "result": "Respiratory: Pulmonary embolism (1.2%)"}]}
